Experimental data as given in PubChem BioAssay (NCI).
“And” between values parts separate entries of the source, which are not always exact repeats. Equal entries are not always repeated.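 Test compounds were applied to cells in 96-well plates for 48 hours at 5 doses. At the GI50, growth is halved. TGI: total growth inhibition.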

Tests used:
Assay in all cases: NCI tumour cell line growth inhibition, 48 h
KM20L2 colon = system: KM20L2 colon
CAKI-1 renal = system: CAKI-1 renal
MDA-MB-231 breast = system: MDA-MB-231 breast
BT-549 breast = system: BT-549 breast
SF-295 CNS = system: SF-295 CNS
A498 renal = system: A498 renal
T-47D breast = system: T-47D breast
HCT-15 colon = system: HCT-15 colon
DU-145 prostate = system: DU-145 prostate
PC-3 prostate = system: PC-3 prostate
P388/ADR leukemia = system: P388/ADR leukemia
DMS 114 small cell lung = system: DMS 114 small cell lung
K-562 leukemia = system: K-562 leukemia
UO-31 renal = system: UO-31 renal
KM12 colon = system: KM12 colon
SR leukemia = system: SR leukemia
P388 leukemia = system: P388 leukemia
SK-MEL-5 melanoma = system: SK-MEL-5 melanoma
SK-MEL-28 melanoma = system: SK-MEL-28 melanoma
SN12K1 renal = system: SN12K1 renal
NCI-H522 lung = system: NCI-H522 lung
OVCAR-3 ovarian = system: OVCAR-3 ovarian
SN12C renal = system: SN12C renal
SK-MEL-2 melanoma = system: SK-MEL-2 melanoma
CCRF-CEM leukemia = system: CCRF-CEM leukemia
TK-10 renal = system: TK-10 renal
MOLT-4 leukemia = system: MOLT-4 leukemia
HS 578T breast = system: HS 578T breast
OVCAR-8 ovarian = system: OVCAR-8 ovarian
M14 melanoma = system: M14 melanoma
IGROV1 ovarian = system: IGROV1 ovarian
OVCAR-5 ovarian = system: OVCAR-5 ovarian
SK-OV-3 ovarian = system: SK-OV-3 ovarian
MCF7 breast = system: MCF7 breast
LOX IMVI melanoma = system: LOX IMVI melanoma
HCT-116 colon = system: HCT-116 colon
U251 CNS = system: U251 CNS
OVCAR-4 ovarian = system: OVCAR-4 ovarian
UACC-62 melanoma = system: UACC-62 melanoma
DLD-1 colon = system: DLD-1 colon
COLO 205 colon = system: COLO 205 colon
SW-620 colon = system: SW-620 colon
HOP-92 NSCLC = system: HOP-92 NSCLC
MDA-N = system: MDA-N
NCI-H460 lung = system: NCI-H460 lung
NCI-H226 lung = system: NCI-H226 lung
A549 NSCLC = system: A549 NSCLC
NCI/ADR-RES ovarian = system: NCI/ADR-RES ovarian
HCC-2998 colon = system: HCC-2998 colon
HOP-62 NSCLC = system: HOP-62 NSCLC
DMS 273 small cell lung = system: DMS 273 small cell lung
SNB-75 CNS = system: SNB-75 CNS
RXF 393 renal = system: RXF 393 renal
786-0 renal = system: 786-0 renal

Compound: C[C@@]1(CO)[C@H](O)CC[C@@]2(C)[C@H]1CC[C@H]1C[C@@H]3C[C@@]12CC[C@@]3(O)COC(=O)CN
- GI50 (KM20L2 colon): 61.2 µM and 28.7 µM and 129 µM
- TGI (KM20L2 colon): > 500 µM
- GI50 (CAKI-1 renal): 2.36 µM
- TGI (CAKI-1 renal): 78.7 µM
- GI50 (MDA-MB-231 breast): 45.4 µM
- TGI (MDA-MB-231 breast): > 89.6 µM and 172 µM
- GI50 (BT-549 breast): 62.7 µM
- TGI (BT-549 breast): > 241 µM
- GI50 (SF-295 CNS): 770 nM (2×) and 3.44 µM
- TGI (SF-295 CNS): 24.4 µM and 142 µM
- GI50 (A498 renal): 7.15 µM and 50.9 µM and 8.34 µM
- GI50 (T-47D breast): 41.9 µM
- TGI (T-47D breast): > 79.1 µM and 190 µM
- TGI (HCT-15 colon): > 500 µM and 231 µM
- GI50 (DU-145 prostate): 2.02 µM
- TGI (DU-145 prostate): > 59.8 µM and 75.5 µM
- GI50 (PC-3 prostate): 3.29 µM
- TGI (PC-3 prostate): 150 µM
- TGI (P388/ADR leukemia): 126 µM
- TGI (DMS 114 small cell lung): > 500 µM and 170 µM
- GI50 (K-562 leukemia): 12.9 µM
- TGI (K-562 leukemia): 68.4 µM and > 5 µM and 231 µM
- GI50 (UO-31 renal): 9.27 µM
- TGI (UO-31 renal): > 80.6 µM and 201 µM
- GI50 (KM12 colon): > 500 µM and 101 µM
- TGI (KM12 colon): 73.7 µM and > 500 µM and 238 µM
- GI50 (SR leukemia): 1.66 µM
- TGI (SR leukemia): 46.5 µM and 47.4 µM
- TGI (P388 leukemia): 209 µM
- GI50 (SK-MEL-5 melanoma): 41.9 µM and 6.06 µM
- TGI (SK-MEL-5 melanoma): > 500 µM and 95.7 µM
- GI50 (SK-MEL-28 melanoma): 83.9 µM and 150 µM
- TGI (SK-MEL-28 melanoma): > 500 µM and 252 µM
- GI50 (SN12K1 renal): 7.45 µM and 1.49 µM
- TGI (SN12K1 renal): > 500 µM
- GI50 (NCI-H522 lung): 14.6 µM and 106 µM and 33.1 µM
- TGI (NCI-H522 lung): > 82.2 µM and > 500 µM and 172 µM
- GI50 (OVCAR-3 ovarian): > 500 µM and 105 µM
- TGI (OVCAR-3 ovarian): > 500 µM and 230 µM
- TGI (SN12C renal): 65.7 µM and > 500 µM and 183 µM
- GI50 (SK-MEL-2 melanoma): > 500 µM
- TGI (SK-MEL-2 melanoma): > 89.6 µM and > 500 µM and 177 µM
- GI50 (CCRF-CEM leukemia): 6.56 µM and 0.777 µM
- GI50 (TK-10 renal): 116 µM
- TGI (TK-10 renal): > 81.1 µM and 193 µM
- GI50 (MOLT-4 leukemia): 2.55 µM
- TGI (MOLT-4 leukemia): 53.7 µM and 162 µM
- GI50 (HS 578T breast): 110 µM
- TGI (HS 578T breast): > 97.2 µM and 214 µM
- GI50 (OVCAR-8 ovarian): 2.29 µM and 12.6 µM and 4.01 µM
- GI50 (M14 melanoma): 3.99 µM
- TGI (M14 melanoma): > 79.1 µM and 112 µM
- TGI (IGROV1 ovarian): > 500 µM and 181 µM
- GI50 (OVCAR-5 ovarian): 31.2 µM and 137 µM and 33.9 µM
- TGI (OVCAR-5 ovarian): > 93.2 µM and > 500 µM and 188 µM
- TGI (SK-OV-3 ovarian): 99.8 µM and > 500 µM and 186 µM
- GI50 (MCF7 breast): 3.17 µM and 21.2 µM and 3.87 µM
- GI50 (LOX IMVI melanoma): 3.62 µM and 6.65 µM
- GI50 (HCT-116 colon): 2.03 µM and 19.5 µM and 4.63 µM
- TGI (HCT-116 colon): 65.7 µM and > 500 µM and 155 µM
- GI50 (U251 CNS): 4.35 µM and 7.51 µM
- TGI (U251 CNS): 66 µM and 50 µM and 178 µM
- GI50 (OVCAR-4 ovarian): > 500 µM and 111 µM
- TGI (OVCAR-4 ovarian): > 87.1 µM and > 500 µM and 182 µM
- TGI (UACC-62 melanoma): > 500 µM and 131 µM
- GI50 (DLD-1 colon): > 500 µM and 104 µM
- TGI (DLD-1 colon): > 500 µM
- GI50 (COLO 205 colon): 82.4 µM
- TGI (COLO 205 colon): 39.7 µM and 193 µM
- TGI (SW-620 colon): 59.4 µM and > 500 µM and 220 µM
- GI50 (HOP-92 NSCLC): 325 µM
- TGI (HOP-92 NSCLC): 83.4 µM and > 500 µM and 137 µM
- TGI (MDA-N): > 86.9 µM and 180 µM
- GI50 (NCI-H460 lung): 0.176 µM and 1.37 µM and 0.317 µM
- TGI (NCI-H226 lung): > 500 µM and 238 µM
- GI50 (A549 NSCLC): 1.81 µM and 15.7 µM and 3.1 µM
- TGI (A549 NSCLC): 76.1 µM and > 500 µM and 182 µM
- TGI (NCI/ADR-RES ovarian): 79.9 µM and > 500 µM and 163 µM
- GI50 (HCC-2998 colon): > 500 µM and 72.6 µM
- GI50 (HOP-62 NSCLC): 4.69 µM and 23.3 µM
- TGI (HOP-62 NSCLC): > 78.7 µM and > 500 µM and 147 µM
- GI50 (DMS 273 small cell lung): 0.25 µM
- TGI (DMS 273 small cell lung): 144 µM
- TGI (SNB-75 CNS): 58.3 µM and > 500 µM and 258 µM
- TGI (RXF 393 renal): 53.6 µM and > 500 µM and 163 µM
- GI50 (786-0 renal): 1.12 µM
- TGI (786-0 renal): 60.8 µM and 108 µM
